The record followed here is ChEMBL document CHEMBL1149014, “Antineoplastic agents, 118. Isolation and structure of bryostatin 9” (1986).

The T/C is the ratio of treated to control.

Type in all cases: functional
Assay [1] relates to P388. Kind of assay: Cytotoxicity against mouse P388 cells.
Assay [2] has as its system P388. Kind of assay: In vivo antitumor activity against mouse P388 cells at 46 to 185 ug/kg relative to control.
The subject of assay [3] is P388. Kind of assay: In vivo antitumor activity against mouse P388 cells assessed as cell life extension at 80 ug/kg.

Values after ≈ are worked out from the molar mass of the structure shown.

`CCCC(=O)O[C@H]1C[C@H]2C[C@@H](O)CC(=O)O[C@@H]([C@@H](C)O)C[C@@H]3C/C(=C\C(=O)OC)[C@H](OC(C)=O)[C@@](O)(O3)C(C)(C)/C=C/[C@H]3C/C(=C\C(=O)OC)C[C@@H](C[C@](O)(O2)C1(C)C)O3` [BRYOSTATIN 6] gave an ED50 in assay [1] of 1 ×10⁻⁵ ug/ml. The compound also yielded a T/C in assay [2] of 139%.

Consider `CCCC(=O)O[C@H]1/C(=C/C(=O)OC)C[C@H]2C[C@H]([C@@H](C)O)OC(=O)C[C@H](O)C[C@@H]3C[C@H](OC(C)=O)C(C)(C)[C@](O)(C[C@@H]4C/C(=C/C(=O)OC)C[C@H](/C=C/C(C)(C)[C@]1(O)O2)O4)O3` [BRYOSTATIN 9], for which the EC50 in assay [1] (Mus musculus, P388, read-out: ED50 (the source's name)) came to 1.2 ng/mL (≈ 1.41 nM). In addition, the Activity in assay [3] is given as 40%.
